Experimental data published in publication PMC12648656, “Palladium(II) Complexes with Noncovalent Interactions with DNA: Solution Speciation Controlled by Solvent Identity, pH, and Concentration” (Inorganic Chemistry, 2025).
≈ marks a conversion by molar mass, not a printed value. Read-outs that look alike come from different tables or passages of the source.

How the values were obtained:
[1] = system: Enterococcus faecalis (ATCC 29212); experiment: Antibacterial MIC, broth dilution; assay type: cell-based
Protocol: (§1) Antibacterial activity was determined for the title compounds in various Gram-negative and Gram-positive bacterial strains, namely Klebsiella pneumoniae, Escherichia coli (ATCC 25922), Staphylococcus aureus (272123), methicillin-resistant Staphylococcus aureus (ATCC 43300), and Enterococcus faecalis (ATCC 29212). The stock solutions of the tested compounds were prepared in DMSO at a 5 mM concentration. […] All stock solutions were diluted in 100 μL of Mueller Hinton Broth, and then two-fold serial dilutions were performed. Then, a 10^–4 dilution of an overnight bacterial culture in 100 μL of medium was added to each well, except for the medium control wells. The highest concentration of the compounds in the tested samples was 100 μM. The plates were incubated at 37 °C for 18 h. After that, the MIC values were determined by visual inspection.

Klebsiella pneumoniae = experiment: Antibacterial MIC, broth dilution; assay type: cell-based; settings: 18 h
Protocol: as §1

[2] = system: Staphylococcus aureus (272123); experiment: Antibacterial MIC, broth dilution; assay type: cell-based; settings: 18 h
Protocol: as §1

[3] = system: Escherichia coli (ATCC 25922); experiment: Antibacterial MIC, broth dilution; assay type: cell-based
Protocol: as §1

[4] = system: methicillin-resistant Staphylococcus aureus (ATCC 43300); experiment: microbe, parasite or virus in culture; assay type: cell-based; settings: 18 h
Protocol: as §1

calf thymus-DNA (CT-DNA) [5] = experiment: Viscometry with CT-DNA; assay type: binding; settings: compound/DNA ratios 0.0 to 1.0; 5 mM Tris, 100 mM NaCl, pH 7.40, 25.0 °C
Protocol: […] Then, the samples were incubated at 37 °C and with constant shaking at 300 rpm for 10 min and 1 h. After each incubation, the viscosity was measured at a constant temperature of 25.0 ± 0.2 °C in a vibrational viscometer. The relative viscosity was calculated by taking the mean values of three replicate measurements, and the values were represented by plotting the values of relative viscosity of CT-DNA (η/η0)^1/3 against 1/R.

[6] = system: MCF7 human breast cancer cell line; experiment: In vitro cytotoxicity, MTT; assay type: cell-based; settings: Homo sapiens; MCF7, 72 h exposure
Protocol: (§2) Cell culture reagents were obtained from Merck, and plasticware was obtained from Sarstedt. Human colon adenocarcinoma cell line Colo 205 (ATCC CCL-222) and MCF7 (ATCC HTB-22) breast cancer cells were purchased from LGC Promochem. Cancer cells were cultured in RPMI 1640 medium supplemented with 10% heat-inactivated fetal bovine serum, 2 mM L-glutamine, and 1 mM sodium pyruvate and buffered with 100 mM HEPES. The cells were incubated at 37 °C in a 5% CO2, 95% air atmosphere and were detached with Trypsin-Versene (EDTA) solution for 5 min at 37 °C.
(§3) The tested ligands were dissolved in DMSO, and the stock solutions (5 mM) were diluted in complete culture medium. Two-fold serial dilutions of compounds were made in 100 μL of the medium, horizontally. The semiadherent colon adenocarcinoma cells were treated with Trypsin-Versene (EDTA) solution. They were adjusted to a density of 1 × 10^4 cells in 100 μL of RPMI 1640 medium and were added to each well, with the exception of the medium control wells. The final volume of the wells containing compounds and cells was 200 μL. The plates containing the cells were incubated at 37 °C for 72 h; at the end of the incubation period, 20 μL of MTT solution (5 mg/mL) was added to each well. After incubation at 37 °C for 4 h, 100 μL of sodium dodecyl sulfate solution (10% in 0.01 M HCl) was added to each well, and the plates were further incubated at 37 °C overnight. Cell growth was determined by measuring the optical density (OD) at 540 and 630 nm with a Multiskan EX plate reader (Thermo Labsystems).
(§4) Curves for the data obtained on cancer cells were fitted by GraphPad Prism software using the sigmoidal dose–response model (comparing variable and fixed slopes). The IC50 values were always obtained from at least three independent experiments.

[7] = system: Colo 205 human colon cancer cell line; experiment: In vitro cytotoxicity, MTT; assay type: cell-based; settings: Colo 205, 72 h exposure
Protocol: as §2, §3, §4

Solubility observations = assay type: physicochemical; settings: as observed; aqueous solution for HL
[8] = Spectrophotometric (UV-vis) pH titrations for proton dissociation constants; assay type: physicochemical; settings: I = 0.10 M (KCl), 25.0 °C
Protocol: Spectrophotometric titrations were applied to study the equilibrium processes (proton dissociation and complex dissociation/formation) in DMSO/H2O mixtures due to the limited aqueous solubility of the compounds. The calibration of the electrode system was performed by strong acid–strong base pH-potentiometric titrations in 30% (v/v) and 60% (v/v) DMSO/H2O solvent mixtures at 25.0 ± 0.1 °C as described in our previous works. , KCl (0.1 M) was the supporting electrolyte to maintain constant ionic strength, which refers to the chloride ion concentration in blood plasma. […] The initial sample volume was 5 mL. Spectrophotometric titrations were performed in the pH range 1.8–12.5 for 30% (v/v) DMSO/H2O medium and 1.8–14.0 for 60% (v/v) DMSO/H2O medium. Prior to the titrations, purified argon was passed through the samples for approximately 10 min to remove CO2 traces, and argon was also passed over the samples during these measurements. The proton dissociation constants were calculated by using the computer program PSEQUAD.

[9] = n-Octanol/water and n-octanol/Tris buffer shake-flask partitioning; assay type: physicochemical
Protocol: The distribution coefficient values (D 7.4) of the compounds were determined by the traditional shake-flask method in n-octanol/buffered aqueous solution at pH 7.40 for 5 mM Tris HCl with 0.1 M KCl and at pH 7.4 at 25.0 ± 0.2 °C. The ligand and complexes were dissolved in n-octanol (presaturated by the aqueous buffer) because of the very low aqueous solubility. The aqueous buffer solution and n-octanol ratio was 1:1 due to the expected high lipophilicity of the compounds. First, samples were mixed with vertical rotation (∼20 rpm) for 3 h, and then the two phases were separated by centrifugation at 3000 rpm (∼1000g) for 3 min. After separation, UV–vis spectra of the compounds were recorded in both phases. Spectra of the n-octanol phases were compared to those of the original n-octanol stock solutions.
The distribution coefficient values were also determined using unbuffered water and octanol (also presaturated) with a ratio of 1:1.

glutathione (GSH) = experiment: Reaction with glutathione followed by UV-vis; settings: 30-fold GSH, ~20 μM complex, 60% (v/v) DMSO/phosphate buffer pH 7.4, 25.0 °C
Protocol: Reactions between the title compounds and GSH were also followed by UV–vis spectrophotometry under an inert atmosphere to overcome oxidation of GSH by air oxygen. Samples contained the metal complexes at low concentrations (∼20 μM) and were prepared using 60% (v/v) DMSO/phosphate buffer solution (pH 7.4) to avoid precipitation. The reactants were separated in the pockets of a tandem cuvette, followed by deoxygenation by argon bubbling. The separate solutions were mixed at 1:30 metal complex:GSH molar ratios, and UV–vis spectra were recorded. Argon was continuously passed over the sample during the whole measurement.

calf thymus-DNA (CT-DNA) [10] = experiment: UV-vis titration with CT-DNA; assay type: binding; settings: complex/DNA ratio 0 to 0.79; 5 mM Tris, 50 mM NaCl, pH 7.40, 25 °C
Protocol: To investigate the potential binding ability of the palladium complexes (2) and (3) with DNA, UV–vis titrations (240 to 700 nm) were performed at room temperature. During the titrations, the CT-DNA concentration (5.08 × 10^–5 M) was kept constant, while the concentration of each complex (0 to 2.00 × 10^–5 M) was varied. The changes in the typical absorbance of CT-DNA at 260 nm were monitored after equilibration (10 min) and after 1 h of incubation at 37 °C. […] Control experiments with DMSO were performed, and no changes in the CT-DNA spectrum were observed.

pBR322 plasmid DNA = experiment: Agarose gel electrophoresis mobility shift; assay type: binding; settings: r i 0.01 to 0.20, 24 h, 37 °C
Protocol: Complexes (2) and (3) were incubated at 37 °C with a concentration of 0.0625 μg/μL pBR322 plasmid DNA at different concentrations expressed as r i = complex:DNA (base pair) ratio. The r i used was from 0.01 to 0.20, in a total volume of 20 μL. After an incubation period of 24 h, the mobility of the complex-treated pBR322 samples was analyzed by gel electrophoresis at 70 V in Tris/acetate/EDTA buffer. A control of pBR322 was also incubated, and a 1 kb ladder aliquot was loaded into lane 1 of the gel. The gel was stained with an ethidium bromide aqueous solution, and DNA bands were visualized with a UV-transilluminator UVITEC Cambridge UVIDOC HD2 instrument. The studies were performed with 3% (v/v) DMSO as the final solution.

[11] = biological target: T1, hen egg white lysozyme (HEWL) (Gallus gallus, UniProt P00698); experiment: Reaction with lysozyme followed by UV-vis at 280 nm, pseudo-first-order kinetics; assay type: binding; settings: metal:protein 3:1, 5 mM Tris/3% DMSO, 37 °C, absorbance at 280 nm
T1 construct: a model protein, namely HEWL (hen egg white lysozyme), was also studied; from tissue; host or cells: hen egg white (from the protein's name)
Protocol: The interaction of complexes (2) and (3) with hen egg white lysozyme (HEWL) was investigated using a 10^–5 M solution of the protein. Lysozyme is a widely used model protein for studying the binding of potential metallodrugs. The sample preparation for this assay was carried out using the same protocol of the samples for the DNA interactions studies by UV–vis spectrophotometry. The integrity of the enzyme was checked in each experiment, with a comparison of fresh and incubated samples. UV–vis spectra were recorded before and after incubation with the complex (dissolved in 97% 5 mM Tris/3% DMSO) for 24 h at 37 °C. A metal to protein ratio of 3:1 was used for these studies, a ratio that affords similar results to 10:1 and eases the sample preparation. The experimental time-dependent profiles of the spectra were analyzed as pseudo-first-order reactions by plotting the variation of the absorbance as a function of time.

[12] = Enterococcus faecalis, ATCC29212, 18 h
[13] = Escherichia coli, ATCC25922, 18 h
[14] = Staphylococcus aureus, ATCC 43300 / MRSA

T1 sequence (P00698 19-147): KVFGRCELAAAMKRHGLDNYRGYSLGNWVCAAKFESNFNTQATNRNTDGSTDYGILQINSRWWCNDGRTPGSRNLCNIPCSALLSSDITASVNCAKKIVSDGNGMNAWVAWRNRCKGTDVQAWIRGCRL

CNC(C)C1CCC(N)C(OC2C(N)CC(N)C(OC3OCC(C)(O)C(NC)C3O)C2O)O1 (stereo not drawn) [gentamicin, reference compound]
MIC [1, 12]: 10.5 µM (≈ 5 µg/mL) | MIC (Klebsiella pneumoniae; Klebsiella pneumoniae): 2.62 µM (≈ 1.25 µg/mL) | MIC ([2]; Staphylococcus aureus): 10.5 µM (≈ 5 µg/mL) | MIC [3, 13]: 5.24 µM (≈ 2.5 µg/mL) | MIC [4, 14]: > 10.5 µM

CC[n+]1c(-c2ccccc2)c2cc(N)ccc2c2ccc(N)cc21 [ethidium bromide]
effect on relative viscosity of CT-DNA (calf thymus-DNA (CT-DNA) [5]): increases the dynamic viscosity

O=C(O)c1cn(C2CC2)c2cc(N3CCNCC3)c(F)cc2c1=O [ciprofloxacin, reference compound]
MIC [1, 12]: 1.89 µM (≈ 0.625 µg/mL) | MIC (Klebsiella pneumoniae; Klebsiella pneumoniae): 0.235 µM (≈ 0.078 µg/mL) | MIC ([2]; Staphylococcus aureus): 1.89 µM (≈ 0.625 µg/mL) | MIC [3, 13]: 0.235 µM (≈ 0.078 µg/mL) | MIC [4, 14]: > 15.1 µM

COc1cccc2c1C(=O)c1c(O)c3c(c(O)c1C2=O)C[C@@](O)(C(=O)CO)C[C@@H]3O[C@H]1C[C@H](N)[C@H](O)[C@H](C)O1 [Doxorubicin, reference compound]
IC50 [6]: 128 ± 0.9 nM | IC50 ([7]; Homo sapiens): 158 ± 4 nM

S=C(N/N=C/c1c[nH]cn1)Nc1ccc(Cl)cc1 [HL, 1H-Imidazole-4-carboxaldehyde(4N-p-chlorophenyl)thiosemicarbazone]
MIC [1, 12]: 100 µM (≈ 28 µg/mL) | MIC (Klebsiella pneumoniae; Klebsiella pneumoniae): > 100 µM | MIC ([2]; Staphylococcus aureus): 100 µM (≈ 28 µg/mL) | MIC [3, 13]: 25 µM (≈ 6.99 µg/mL) | solubility (Solubility observations): poor solubility | pKa ([8]; 30% (v/v) DMSO/H2O solvent mixture, 30% (v/v) DMSO/H2O, read-out: pKa1): 4.38 ± 0.03 | pKa ([8]; 30% (v/v) DMSO/H2O solvent mixture, 30% (v/v) DMSO/H2O, read-out: pKa2): 10.96 ± 0.04 | pKa ([8]; 60% (v/v) DMSO/H2O solvent mixture, 60% (v/v) DMSO/H2O, read-out: pKa1): 3.81 ± 0.02 | pKa ([8]; 60% (v/v) DMSO/H2O solvent mixture, 60% (v/v) DMSO/H2O, read-out: pKa2): 11.12 ± 0.01 | pKa ([8]; pure water (0% DMSO), predicted value, 0% DMSO (pure water), predicted value, read-out: pKa1): 4.58 | pKa ([8]; pure water (0% DMSO), predicted value, 0% DMSO (pure water), predicted value, read-out: pKa2): 10.9 | IC50 [6]: 2970 ± 320 nM | IC50 ([7]; Homo sapiens): 19100 ± 600 nM | MIC [4, 14]: 50 µM (≈ 14 µg/mL) | logD ([9]; n-octanol/Tris HCl buffer, pH 7.4, n-octanol/5 mM Tris HCl with 0.1 M KCl, pH 7.40, 25.0 °C, read-out: log D o/t): 1.58 | logD ([9]; n-octanol/pure (unbuffered) water, 1:1, read-out: log D o/w): 0.9

Chlorido(dimethyl sulfoxide)(1H-imidazole-4-carboxaldehyde-4N-p-chlorophenylthiosemicarbazonato)palladium(II) [(3)]
MIC ([1]; E. faecalis, 18 h, 37 °C): > 100 µM | MIC (Klebsiella pneumoniae; K. pneumoniae, 37 °C): > 100 µM | MIC ([2]; S. aureus, 37 °C): > 100 µM | MIC ([3]; E. coli, 18 h, 37 °C): > 100 µM | IC50 [7]: 16200 ± 1180 nM | time to equilibrium of the reaction with GSH (glutathione (GSH)): ≤ 30 min | MIC ([4]; S. aureus (MRSA), 37 °C): > 100 µM | change of CT-DNA absorption at 260 nm (calf thymus-DNA (CT-DNA) [10]): absorption values of DNA–complex samples increase | effect on electrophoretic mobility of supercoiled pBR322 (pure form) (pBR322 plasmid DNA): small unwinding | observed rate constant k obs [11]: (8.75 ± 0.09) × 10^–5 s^–1
